Reference: US12472219B2, “Encapsulated cannabinoid formulations for transdermal delivery” (Nutrae, LLC, priority 2018, dated 2025)

Assay: Encapsulation efficiency by ultracentrifugation and HPLC

| Compound | encapsulation efficiency of CBD (% EE) (active ingredient 1% (w/w), oleic acid and polysorbate 20 preparation) [%] | encapsulation efficiency, THC compared with CBD (tested concentrations 6% and 10% (w/w), oleic acid and polysorbate 20) |
| --- | --- | --- |
| C=C(C)[C@@H]1CCC(C)=C[C@H]1c1c(O)cc(CCCCC)cc1O [CBD, cannabidiol] | 80.11 |  |
| CCCCCc1cc(O)c2c(c1)OC(C)(C)[C@@H]1CCC(C)=C[C@@H]21 [THC, Δ9-tetrahydrocannabinol] |  | generally higher for THC over CBD |
